AC50 data for eleven compounds are collected here from ChEMBL document CHEMBL5291721, “A preclinical secondary pharmacology resource illuminates target-adverse drug reaction associations of marketed drugs” (Nat Commun, 2023).

Some targets named below: Adenosine receptor A2a (Homo sapiens, UniProt P29274); Cannabinoid receptor 1 (Homo sapiens, UniProt P21554); D(3) dopamine receptor (Homo sapiens, UniProt P35462).
Experiment [1] concerns the target T1, Alpha-2C adrenergic receptor (Homo sapiens, UniProt P18825).
T1 sequence (P18825 whole entry): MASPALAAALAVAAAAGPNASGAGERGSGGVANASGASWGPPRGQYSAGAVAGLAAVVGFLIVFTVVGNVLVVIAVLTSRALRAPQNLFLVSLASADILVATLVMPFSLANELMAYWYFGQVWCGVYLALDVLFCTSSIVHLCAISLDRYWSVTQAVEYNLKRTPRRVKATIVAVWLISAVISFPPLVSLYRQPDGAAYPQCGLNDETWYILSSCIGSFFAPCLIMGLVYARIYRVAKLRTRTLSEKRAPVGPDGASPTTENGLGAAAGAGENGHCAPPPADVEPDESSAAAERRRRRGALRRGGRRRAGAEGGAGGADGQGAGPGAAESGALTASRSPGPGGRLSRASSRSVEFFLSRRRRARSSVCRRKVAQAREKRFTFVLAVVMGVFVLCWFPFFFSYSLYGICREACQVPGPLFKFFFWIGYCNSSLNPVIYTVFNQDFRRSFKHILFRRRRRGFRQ
Type of experiment: functional.

The next experiment addresses T2, Endothelin-1 receptor (Homo sapiens, UniProt P25101).
T2 sequence (P25101 whole entry): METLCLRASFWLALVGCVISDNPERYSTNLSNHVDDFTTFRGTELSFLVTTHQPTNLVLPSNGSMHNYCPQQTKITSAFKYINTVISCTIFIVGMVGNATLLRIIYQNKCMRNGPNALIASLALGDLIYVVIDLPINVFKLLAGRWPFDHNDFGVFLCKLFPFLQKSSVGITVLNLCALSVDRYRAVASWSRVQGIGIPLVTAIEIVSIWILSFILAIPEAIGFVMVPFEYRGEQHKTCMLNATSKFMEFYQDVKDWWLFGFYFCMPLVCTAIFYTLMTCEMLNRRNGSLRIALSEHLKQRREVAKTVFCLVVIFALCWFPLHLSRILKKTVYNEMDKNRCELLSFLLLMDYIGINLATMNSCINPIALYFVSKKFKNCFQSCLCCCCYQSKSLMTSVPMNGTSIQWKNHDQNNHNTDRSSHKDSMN

The target of experiment [2] is Growth hormone secretagogue receptor type 1 (Homo sapiens, UniProt Q92847).
Experiment [3] deals with T3, 5-hydroxytryptamine receptor 1A (Homo sapiens, UniProt P08908).
T3 sequence (P08908 whole entry): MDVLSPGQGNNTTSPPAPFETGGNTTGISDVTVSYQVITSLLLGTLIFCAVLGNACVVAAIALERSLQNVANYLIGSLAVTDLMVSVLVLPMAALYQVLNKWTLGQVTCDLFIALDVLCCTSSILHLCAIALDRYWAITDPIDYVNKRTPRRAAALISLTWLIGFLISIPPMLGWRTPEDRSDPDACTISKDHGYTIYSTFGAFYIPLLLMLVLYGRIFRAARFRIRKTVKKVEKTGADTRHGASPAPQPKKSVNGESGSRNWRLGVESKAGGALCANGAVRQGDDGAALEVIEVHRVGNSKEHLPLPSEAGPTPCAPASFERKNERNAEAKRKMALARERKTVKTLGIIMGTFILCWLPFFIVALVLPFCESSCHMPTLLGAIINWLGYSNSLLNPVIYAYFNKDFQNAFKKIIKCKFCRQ
Type of experiment: functional, cell-based.

The target of experiment [4] is 5-hydroxytryptamine receptor 2B (Homo sapiens, UniProt P41595). The experiment is classed as functional, cell-based.
Experiment [5] has as its target Voltage-gated inwardly rectifying potassium channel KCNH2 (Homo sapiens, UniProt Q12809). The experiment is classed as functional. To be noted: read-out: AC50.
The next experiment concerns the target T4, Thromboxane A2 receptor (Homo sapiens, UniProt P21731).
T4 sequence (P21731 whole entry): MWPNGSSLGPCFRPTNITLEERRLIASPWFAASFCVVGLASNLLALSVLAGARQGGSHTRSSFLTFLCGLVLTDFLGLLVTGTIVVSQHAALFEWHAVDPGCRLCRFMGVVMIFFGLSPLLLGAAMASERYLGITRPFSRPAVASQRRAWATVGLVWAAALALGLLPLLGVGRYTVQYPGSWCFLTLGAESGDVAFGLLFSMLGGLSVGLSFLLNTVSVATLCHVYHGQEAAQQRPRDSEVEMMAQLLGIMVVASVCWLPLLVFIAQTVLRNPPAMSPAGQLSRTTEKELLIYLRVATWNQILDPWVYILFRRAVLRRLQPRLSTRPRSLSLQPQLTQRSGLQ

For experiment [6], the target named is Sodium-dependent noradrenaline transporter (Homo sapiens, UniProt P23975).
The target in experiment [7] is T5, Muscarinic acetylcholine receptor M1 (Homo sapiens, UniProt P11229).
T5 sequence (P11229 whole entry): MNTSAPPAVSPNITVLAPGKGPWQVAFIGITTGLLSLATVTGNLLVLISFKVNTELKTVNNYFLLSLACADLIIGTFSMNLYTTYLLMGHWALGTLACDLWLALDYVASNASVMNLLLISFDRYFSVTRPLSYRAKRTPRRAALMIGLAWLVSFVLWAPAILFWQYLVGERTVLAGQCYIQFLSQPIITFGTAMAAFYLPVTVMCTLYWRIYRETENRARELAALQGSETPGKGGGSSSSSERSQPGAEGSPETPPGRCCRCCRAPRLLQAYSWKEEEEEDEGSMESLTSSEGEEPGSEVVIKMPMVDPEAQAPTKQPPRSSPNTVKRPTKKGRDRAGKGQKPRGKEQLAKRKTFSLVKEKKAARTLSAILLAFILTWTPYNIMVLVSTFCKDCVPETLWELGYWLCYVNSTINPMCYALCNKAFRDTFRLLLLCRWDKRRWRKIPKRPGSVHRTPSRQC
Type of experiment: functional.
Also: assay procedure not described here.

D(3) dopamine receptor, sequence (P35462 whole entry): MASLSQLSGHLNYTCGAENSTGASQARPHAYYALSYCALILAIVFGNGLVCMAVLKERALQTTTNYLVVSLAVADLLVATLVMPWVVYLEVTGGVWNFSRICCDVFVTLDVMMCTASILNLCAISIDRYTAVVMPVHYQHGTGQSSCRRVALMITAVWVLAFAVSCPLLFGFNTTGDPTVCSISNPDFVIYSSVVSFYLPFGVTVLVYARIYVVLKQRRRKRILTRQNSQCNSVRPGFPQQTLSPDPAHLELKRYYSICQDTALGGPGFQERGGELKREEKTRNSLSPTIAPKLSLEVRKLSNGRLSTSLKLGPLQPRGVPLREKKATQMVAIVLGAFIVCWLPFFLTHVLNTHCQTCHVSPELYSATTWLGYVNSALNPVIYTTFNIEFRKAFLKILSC
5-hydroxytryptamine receptor 2B, sequence (P41595 whole entry): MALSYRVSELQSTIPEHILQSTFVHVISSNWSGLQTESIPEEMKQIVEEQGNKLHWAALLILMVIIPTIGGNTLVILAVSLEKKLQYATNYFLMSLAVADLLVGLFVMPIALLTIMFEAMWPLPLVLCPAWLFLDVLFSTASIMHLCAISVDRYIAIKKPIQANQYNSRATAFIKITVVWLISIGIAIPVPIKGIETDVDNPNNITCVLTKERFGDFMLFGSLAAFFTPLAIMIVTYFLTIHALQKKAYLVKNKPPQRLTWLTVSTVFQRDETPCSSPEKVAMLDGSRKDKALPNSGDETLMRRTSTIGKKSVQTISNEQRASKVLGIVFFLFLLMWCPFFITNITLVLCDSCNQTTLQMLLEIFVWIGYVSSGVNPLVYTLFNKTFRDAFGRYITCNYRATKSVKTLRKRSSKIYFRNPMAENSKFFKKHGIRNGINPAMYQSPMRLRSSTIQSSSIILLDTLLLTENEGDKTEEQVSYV
Cannabinoid receptor 1, sequence (P21554 whole entry): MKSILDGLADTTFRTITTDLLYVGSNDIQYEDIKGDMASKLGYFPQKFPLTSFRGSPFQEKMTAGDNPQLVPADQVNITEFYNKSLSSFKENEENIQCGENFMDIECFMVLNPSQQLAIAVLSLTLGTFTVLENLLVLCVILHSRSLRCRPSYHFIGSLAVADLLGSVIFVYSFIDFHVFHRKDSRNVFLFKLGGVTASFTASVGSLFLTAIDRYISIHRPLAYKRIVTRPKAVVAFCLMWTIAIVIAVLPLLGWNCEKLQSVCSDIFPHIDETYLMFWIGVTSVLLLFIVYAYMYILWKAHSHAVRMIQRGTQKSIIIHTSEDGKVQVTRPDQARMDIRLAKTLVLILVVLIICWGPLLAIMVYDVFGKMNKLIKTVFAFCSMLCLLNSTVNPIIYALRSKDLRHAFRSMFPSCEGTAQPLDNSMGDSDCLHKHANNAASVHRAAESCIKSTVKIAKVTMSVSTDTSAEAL
Sodium-dependent noradrenaline transporter, sequence (P23975 whole entry): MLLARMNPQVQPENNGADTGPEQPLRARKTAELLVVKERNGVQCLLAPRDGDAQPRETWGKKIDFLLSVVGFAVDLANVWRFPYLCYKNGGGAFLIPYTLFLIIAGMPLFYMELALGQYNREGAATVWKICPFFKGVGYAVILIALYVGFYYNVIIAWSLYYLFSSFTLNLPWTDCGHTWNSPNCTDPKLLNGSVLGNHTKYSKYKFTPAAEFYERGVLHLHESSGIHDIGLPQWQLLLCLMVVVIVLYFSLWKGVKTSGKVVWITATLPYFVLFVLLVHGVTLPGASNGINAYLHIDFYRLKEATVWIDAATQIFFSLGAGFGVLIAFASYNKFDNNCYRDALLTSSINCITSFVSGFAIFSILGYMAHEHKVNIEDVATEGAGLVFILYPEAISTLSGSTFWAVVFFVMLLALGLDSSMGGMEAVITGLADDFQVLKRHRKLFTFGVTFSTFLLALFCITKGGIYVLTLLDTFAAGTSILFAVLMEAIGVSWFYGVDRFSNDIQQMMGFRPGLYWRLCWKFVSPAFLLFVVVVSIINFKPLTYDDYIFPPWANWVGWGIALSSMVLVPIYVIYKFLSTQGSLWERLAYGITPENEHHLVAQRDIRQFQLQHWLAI
Adenosine receptor A2a, sequence (P29274 whole entry): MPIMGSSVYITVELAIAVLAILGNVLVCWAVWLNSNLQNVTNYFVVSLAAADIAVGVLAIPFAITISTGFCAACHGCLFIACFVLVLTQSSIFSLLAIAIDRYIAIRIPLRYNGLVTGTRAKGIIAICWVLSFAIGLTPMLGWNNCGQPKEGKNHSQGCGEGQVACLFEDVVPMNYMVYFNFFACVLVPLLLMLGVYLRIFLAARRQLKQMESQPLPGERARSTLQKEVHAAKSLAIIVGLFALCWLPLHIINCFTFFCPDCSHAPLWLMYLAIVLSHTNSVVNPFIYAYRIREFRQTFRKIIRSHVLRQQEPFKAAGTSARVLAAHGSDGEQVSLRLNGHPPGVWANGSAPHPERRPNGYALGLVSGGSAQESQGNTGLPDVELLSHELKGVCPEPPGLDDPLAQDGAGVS
Voltage-gated inwardly rectifying potassium channel KCNH2, sequence (Q12809 whole entry): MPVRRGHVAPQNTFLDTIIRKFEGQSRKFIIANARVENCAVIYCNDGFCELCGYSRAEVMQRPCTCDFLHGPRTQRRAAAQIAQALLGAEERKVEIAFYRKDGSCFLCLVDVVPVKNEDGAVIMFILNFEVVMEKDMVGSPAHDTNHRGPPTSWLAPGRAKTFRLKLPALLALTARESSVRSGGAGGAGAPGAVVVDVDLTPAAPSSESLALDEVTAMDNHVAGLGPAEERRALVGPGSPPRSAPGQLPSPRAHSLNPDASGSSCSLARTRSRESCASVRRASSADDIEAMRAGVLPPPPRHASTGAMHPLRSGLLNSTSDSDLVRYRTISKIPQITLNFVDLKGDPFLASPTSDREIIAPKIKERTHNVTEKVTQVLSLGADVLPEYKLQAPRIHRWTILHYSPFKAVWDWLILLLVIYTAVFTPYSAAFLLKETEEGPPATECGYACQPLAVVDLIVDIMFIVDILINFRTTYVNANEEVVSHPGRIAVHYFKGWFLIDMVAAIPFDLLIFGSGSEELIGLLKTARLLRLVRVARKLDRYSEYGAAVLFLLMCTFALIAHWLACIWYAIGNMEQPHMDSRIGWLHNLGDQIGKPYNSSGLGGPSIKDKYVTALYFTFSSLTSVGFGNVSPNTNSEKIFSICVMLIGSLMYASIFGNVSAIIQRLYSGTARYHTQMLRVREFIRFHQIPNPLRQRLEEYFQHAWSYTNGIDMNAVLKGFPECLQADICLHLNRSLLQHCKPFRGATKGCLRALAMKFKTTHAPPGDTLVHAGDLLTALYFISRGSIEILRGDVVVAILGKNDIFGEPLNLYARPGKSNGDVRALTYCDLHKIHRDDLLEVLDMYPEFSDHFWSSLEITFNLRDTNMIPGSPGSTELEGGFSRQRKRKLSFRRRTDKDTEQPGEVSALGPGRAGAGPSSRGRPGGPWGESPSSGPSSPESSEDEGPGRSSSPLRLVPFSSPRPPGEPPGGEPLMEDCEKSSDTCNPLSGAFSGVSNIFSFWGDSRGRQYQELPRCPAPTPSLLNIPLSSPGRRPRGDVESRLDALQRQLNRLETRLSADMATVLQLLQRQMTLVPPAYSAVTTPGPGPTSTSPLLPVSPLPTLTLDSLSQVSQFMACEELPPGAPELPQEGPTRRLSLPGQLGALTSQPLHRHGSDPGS
Growth hormone secretagogue receptor type 1, sequence (Q92847 whole entry): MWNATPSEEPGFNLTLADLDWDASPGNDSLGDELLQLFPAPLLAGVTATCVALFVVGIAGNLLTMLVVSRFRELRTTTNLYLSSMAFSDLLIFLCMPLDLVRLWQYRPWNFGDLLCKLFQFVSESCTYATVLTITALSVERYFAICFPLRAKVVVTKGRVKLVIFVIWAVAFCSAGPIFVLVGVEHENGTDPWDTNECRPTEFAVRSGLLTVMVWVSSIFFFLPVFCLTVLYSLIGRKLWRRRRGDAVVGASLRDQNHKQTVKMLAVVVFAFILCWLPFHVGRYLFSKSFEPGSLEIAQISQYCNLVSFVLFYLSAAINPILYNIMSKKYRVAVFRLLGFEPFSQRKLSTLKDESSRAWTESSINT

For `CCCN(CCC)C(=O)C(CCC(=O)O)NC(=O)c1ccccc1` (stereo unspecified) [PROGLUMIDE], the AC50 (commonly the concentration at which the activity in the assay is half-maximal) at Adenosine receptor A2a is above 30 µM; in experiment [1] it was above 30 µM; at Cannabinoid receptor 1 it was above 10 µM; on Endothelin-1 receptor it was above 30 µM; in experiment [2], above 30 µM; in experiment [3], above 10 µM. Further, the half-maximal activity concentration (AC50) in experiment [4] was above 10 µM; in [5], above 30 µM; on Thromboxane A2 receptor it was above 30 µM; in [6], above 30 µM; at D(3) dopamine receptor it was above 30 µM.
For the compound `CC(Oc1c(Cl)cccc1Cl)C1=NCCN1` (stereo unspecified) [LOFEXIDINE], the AC50 was above 30 µM at Adenosine receptor A2a; 0.42 µM in [1]; above 30 µM in [7]; above 30 µM at Cannabinoid receptor 1; above 30 µM on Endothelin-1 receptor; above 30 µM in [2]. For the same compound, the AC50 in [3] is 1.1 µM; in experiment [4], above 30 µM; in [5], 8.86 µM; on Thromboxane A2 receptor, above 30 µM; in [6], above 30 µM; at D(3) dopamine receptor, above 30 µM.
Consider `CCc1c(Cl)c(O)c(Cl)c(O)c1C(=O)O[C@H]1[C@H](O)[C@H](OC)[C@H](OC/C2=C\C=C\C[C@H](O)/C(C)=C/[C@H](CC)[C@@H](O[C@@H]3OC(C)(C)[C@@H](OC(=O)C(C)C)[C@H](O)[C@@H]3O)/C(C)=C/C(C)=C/C[C@@H]([C@@H](C)O)OC2=O)O[C@@H]1C` [FIDAXOMICIN], for which the AC50 at Adenosine receptor A2a is above 30 µM; in experiment [1], above 30 µM; in experiment [7] it was above 30 µM; on Cannabinoid receptor 1, above 10 µM; on Endothelin-1 receptor, above 30 µM; in experiment [2], above 30 µM. Moreover, the AC50 (in experiment [4]; in [5]; at Thromboxane A2 receptor; in experiment [6]; on D(3) dopamine receptor) was above 30 µM in each case.
Turning to `O=C(O)[C@H](CC(=O)N1C[C@H]2CCCC[C@H]2C1)Cc1ccccc1` [MITIGLINIDE], the AC50 (on Adenosine receptor A2a; in experiment [1]; in experiment [7]; at Cannabinoid receptor 1; in experiment [2]; in experiment [3]) was above 10 µM in each case. Also, the AC50 in [4] is above 10 µM; in [5], above 30 µM; on Thromboxane A2 receptor it was above 10 µM; in [6], above 10 µM; on D(3) dopamine receptor it was above 30 µM.
As for `C[C@H](N)[C@H](O)c1cccc(O)c1` [METARAMINOL], the AC50 (on Adenosine receptor A2a; in experiment [1]; in experiment [7]; at Cannabinoid receptor 1; in experiment [2]; in experiment [3]) was above 10 µM each time. The AC50 was 12 µM in experiment [4]; above 30 µM in [5]; above 10 µM on Thromboxane A2 receptor; above 10 µM in experiment [6]; above 30 µM on D(3) dopamine receptor.
Take `C#C[C@]1(O)CC[C@H]2[C@@H]3CCc4cc(OC5CCCC5)ccc4[C@H]3CC[C@@]21C` [QUINESTROL]: the AC50 (on Adenosine receptor A2a; in experiment [1]; in experiment [7]; at Cannabinoid receptor 1; in [2]; in experiment [3]) was above 10 µM throughout. In addition, the AC50 was above 10 µM in experiment [4]; above 30 µM in experiment [5]; above 10 µM at Thromboxane A2 receptor; above 10 µM in experiment [6]; above 30 µM at D(3) dopamine receptor.
As to `Nc1nc(/C(=C/CC(=O)O)C(=O)N[C@@H]2C(=O)N3C(C(=O)O)=CCS[C@H]23)cs1` [CEFTIBUTEN], the AC50 (at Adenosine receptor A2a; in [1]; in [7]; on Cannabinoid receptor 1; in [2]; in experiment [3]) was above 30 µM throughout. In addition, the AC50 (in experiment [4]; in [5]; at Thromboxane A2 receptor; in experiment [6]; at D(3) dopamine receptor) was above 30 µM in each case.
With `COC(=O)[C@H]1[C@H]2C[C@@H]3c4[nH]c5cc(OC)ccc5c4CCN3C[C@H]2C[C@@H](OC(=O)/C=C/c2cc(OC)c(OC)c(OC)c2)[C@@H]1OC` [RESCINNAMINE], the AC50 was above 30 µM on Adenosine receptor A2a; above 10 µM in experiment [1]; above 10 µM in experiment [7]; above 10 µM on Cannabinoid receptor 1; above 10 µM in experiment [2]; above 10 µM in experiment [3]. For the same compound, the AC50 in [4] was above 10 µM; in [5] it was 0.988 µM; on Thromboxane A2 receptor, above 10 µM; in experiment [6], above 30 µM; on D(3) dopamine receptor, above 30 µM.
Take `N#Cc1ccc([C@H]2CCc3cncn32)c(F)c1` [OSILODROSTAT]: the AC50 (at Adenosine receptor A2a; in experiment [1]; in experiment [7]; on Cannabinoid receptor 1; on Endothelin-1 receptor; in experiment [2]) was above 10 µM throughout. The AC50 in experiment [5] was 19.7 µM; on Thromboxane A2 receptor, above 10 µM; in experiment [6], above 10 µM; on D(3) dopamine receptor it was above 10 µM.
With `C=CCC1(CC(C)C)C(=O)NC(=O)NC1=O` [BUTALBITAL], the AC50 at Adenosine receptor A2a is above 10 µM; in experiment [1] it was above 30 µM; in experiment [7] it was above 30 µM; on Cannabinoid receptor 1, above 10 µM; in [2], above 10 µM; in experiment [3] it was above 10 µM. Besides, the AC50 in experiment [4] is above 10 µM; in experiment [5], above 30 µM; on Thromboxane A2 receptor, above 10 µM; in experiment [6], above 10 µM; on D(3) dopamine receptor, above 30 µM.
For `CCCC(C)C1(CC)C(=O)NC(=O)NC1=O` (stereo unspecified) [PENTOBARBITAL], the AC50 was above 10 µM on Adenosine receptor A2a; above 30 µM in experiment [1]; above 30 µM in [7]; above 10 µM on Cannabinoid receptor 1; above 10 µM in experiment [2]; above 10 µM in experiment [3]. In addition, the AC50 in experiment [4] was above 10 µM; in experiment [5], above 30 µM; on Thromboxane A2 receptor, above 10 µM; in [6] it was above 10 µM; at D(3) dopamine receptor, above 30 µM.
